Source: US8952024B2, “Herbicidal pyrimidone derivatives” (E I du Pont de Nemours and Company, priority 2009, dated 2015)

Legend:
Format in all cases: in vivo
[1] = test system: bermudagrass (Cynodon dactylon); assay: Test B pre-/postemergence plant response; conditions: for Bermudagrass plant response rating (0 to 100 scale): 0 is no effect
Description: (§1) Seeds of plant species selected from blackgrass (Alopecurus myosuroides), downy bromegrass (Bromus tectorum), green foxtail (Setaria viridis), Italian ryegrass (Lolium multiflorum), wheat (Triticum aestivum), wild oat (Avena fatua), deadnettle (henbit deadnettle, Lamium amplexicaule), galium (catchweed bedstraw, Galium aparine), bermudagrass (Cynodon dactylon), Surinam grass (Brachiaria decumbens), cocklebur (Xanthium strumarium), corn (Zea mays), large crabgrass (Digitaria sanguinalis), woolly cupgrass (Eriochloa villosa), giant foxtail (Setaria faberii), goosegrass (Eleusine indica), johnsongrass (Sorghum halepense), kochia (Kochia scoparia), lambsquarters (Chenopodium album), morningglory (Ipomoea coccinea), nightshade (eastern black nightshade, Solanum ptycanthum), yellow nutsedge (Cyperus esculentus), pigweed (Amaranthus retroflexus), ragweed (common ragweed, Ambrosia elatior), Russian thistle (Salsola kali), soybean (Glycine max), sunflower (common oilseed sunflower, Helianthus annuus) and velvetleaf (Abutilon theophrasti) were planted into a blend of loam soil and sand and treated preemergence with test compounds formulated in a non-phytotoxic solvent mixture which included a surfactant.
(§2) At the same time, plants selected from these crop and weed species and also winter barley (Hordeum vulgare), canarygrass (Phalaris minor), chickweed (Stellaria media) and windgrass (Apera spica-venti) were planted in pots containing Redi-Earth® planting medium (Scotts Company, 14111 Scottslawn Road, Marysville, Ohio 43041) comprising spaghnum peat moss, vermiculite, wetting agent and starter nutrients and treated with postemergence applications of some of the test chemicals formulated in the same manner. Plants ranged in height from 2 to 18 cm (1- to 4-leaf stage) for postemergence treatments.
(§3) Treated plants and controls were maintained in a greenhouse for 13 to 15 days, after which time all treated plants were visually evaluated and compared to controls. Plant response ratings, summarized in Table B, are based on a scale of 0 to 100 where 0 is no effect and 100 is complete control. A dash (-) response means no test result.

[2] = test system: cocklebur (Xanthium strumarium); assay: Test B pre-/postemergence plant response; conditions: for Cocklebur plant response rating (0 to 100 scale): 0 is no effect
Description: as §1, §2, §3

[3] = test system: wheat (Triticum aestivum); assay: Test B pre-/postemergence plant response; conditions: for Wheat plant response rating (0 to 100 scale): 0 is no effect
Description: as §1, §2, §3

[4] = test system: velvetleaf (Abutilon theophrasti); assay: Test A pre-/postemergence plant response
Summary of the method: (§4)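 Visual injury rating on a 0–100 scale (0 = no effect, 100 = complete control) was made versus untreated controls after about ten days in the greenhouse. Compounds, formulated in a non-phytotoxic solvent mix containing surfactant, were sprayed preemergence onto loam/sand soil and postemergence onto one- to two-leaf plants.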

[5] = test system: barnyardgrass (Echinochloa crus-galli); assay: Test A pre-/postemergence plant response
Summary of the method: as §4

[6] = test system: pigweed (Amaranthus retroflexus); assay: Test A pre-/postemergence plant response
Summary of the method: as §4

corn (Zea mays) = assay: Test A pre-/postemergence plant response
Summary of the method: as §4

[7] = test system: giant foxtail (Setaria faberii); assay: Test A pre-/postemergence plant response
Summary of the method: as §4

[8] = test system: morningglory (Ipomoea spp.); assay: Test A pre-/postemergence plant response
Summary of the method: as §4

[9] = test system: wheat (Triticum aestivum); assay: Test A pre-/postemergence plant response
Summary of the method: as §4

[10] = test system: large crabgrass (Digitaria sanguinalis); assay: Test A pre-/postemergence plant response
Summary of the method: as §4

[11] = 250 g ai/ha, Preemergence, 0 to 100 scale
[12] = Postemergence, 31 g ai/ha, scale 0 to 100 (0 no effect, 100 complete control)
[13] = Postemergence, 62 g ai/ha, scale 0 (no effect) to 100 (complete control), 13 to 15 days
[14] = Postemergence, 125 g ai/ha, visual rating after 13 to 15 days, scale 0 (no effect) to 100 (complete control)
[15] = Postemergence, 250 g ai/ha, scale 0 to 100
[16] = Preemergence, 31 g ai/ha, scale 0 to 100 (0 no effect, 100 complete control)
[17] = Preemergence, 62 g ai/ha, scale 0 to 100, 0 no effect, 100 complete control
[18] = Preemergence, 125 g ai/ha, 0 to 100 scale
[19] = Postemergence, 125 g ai/ha, visual injury, 0 to 100 scale (0 no effect, 100 complete control), approx. ten days
[20] = Postemergence, 500 g ai/ha, 0 to 100 scale, 0 = no effect, 100 = complete control, approx. ten days
[21] = Preemergence, 125 g ai/ha, 0 to 100 scale, 0 = no effect, 100 = complete control
[22] = Preemergence, 500 g ai/ha, visual injury, 0 to 100 scale (0 no effect, 100 complete control), approx. ten days
[23] = 31 g ai/ha, postemergence, scale 0 to 100, 0 is no effect, 100 is complete control
[24] = 62 g ai/ha, postemergence, 100 is complete control, 13 to 15 days
[25] = Postemergence, 250 g ai/ha, scale 0 to 100 (0 no effect, 100 complete control)
[26] = Preemergence, 125 g ai/ha, scale 0 to 100, 0 no effect, 100 complete control
[27] = Preemergence, 250 g ai/ha, 0 to 100 scale
[28] = Postemergence, 125 g ai/ha, 0 to 100 scale where 0 is no effect and 100 is complete control
[29] = Postemergence, 125 g ai/ha, scale 0 to 100 (0 no effect, 100 complete control)

O=C1CCCC(O)=C1C(=O)c1cnc(-c2cccc(Cl)c2)n(-c2ccccc2)c1=O [Compound 34]
75: Plant response rating, Bermudagrass [1, 12] | Cocklebur plant response rating [2, 18]
95: Plant response rating, Bermudagrass [1, 13] | Plant response rating, Bermudagrass [1, 14] | Cocklebur plant response rating [2, 15]
60: Plant response rating, Foxtail, Giant [7, 21] | Plant response rating, Morningglory [8, 22]
80: Morningglory plant response rating [8, 19]
35: Plant response rating, Wheat [3, 14]
10: Plant response rating, Wheat [3, 13] | Plant response rating, Barnyardgrass [5, 21] | Plant response rating, Morningglory [8, 21]
100: Plant response rating, Bermudagrass [1, 11] | Plant response rating, Bermudagrass [1, 16] | Plant response rating, Bermudagrass [1, 17] | Bermudagrass plant response rating [1, 18] | Velvetleaf plant response rating [4, 19] | Plant response rating, Velvetleaf [4, 20] | Plant response rating, Velvetleaf [4, 22] | Plant response rating, Barnyardgrass [5, 20] | Plant response rating, Barnyardgrass [5, 22] | Pigweed plant response rating [6, 19] | Plant response rating, Pigweed [6, 20] | Plant response rating, Pigweed [6, 22] | Plant response rating, Foxtail, Giant [7, 20] | Plant response rating, Foxtail, Giant [7, 22] | Plant response rating, Morningglory [8, 20] | Plant response rating, Crabgrass, Large [10, 20] | Plant response rating, Crabgrass, Large [10, 22]
90: Barnyardgrass plant response rating [5, 19] | Plant response rating, Pigweed [6, 21] | Foxtail, Giant plant response rating [7, 19] | Crabgrass, Large plant response rating [10, 19] | Plant response rating, Crabgrass, Large [10, 21]
30: Plant response rating, Corn (corn (Zea mays); [20]) | Plant response rating, Wheat [9, 20]
25: Plant response rating, Cocklebur [2, 13]
0: Plant response rating, Cocklebur [2, 12] | Plant response rating, Cocklebur [2, 16] | Plant response rating, Wheat [3, 11] | Plant response rating, Wheat [3, 17] | Wheat plant response rating [3, 18] | Corn plant response rating (corn (Zea mays); [19]) | Plant response rating, Corn (corn (Zea mays); [21]) | Plant response rating, Corn (corn (Zea mays); [22]) | Wheat plant response rating [9, 19] | Plant response rating, Wheat [9, 21] | Plant response rating, Wheat [9, 22]
50: Plant response rating, Velvetleaf [4, 21]
55: Plant response rating, Cocklebur [2, 17]
85: Plant response rating, Cocklebur [2, 11] | Plant response rating, Cocklebur [2, 14]
98: Bermudagrass plant response rating [1, 15]

CCCCn1c(CCC)ncc(C(=O)C2=C(O)CCCC2=O)c1=O [Compound 75]
100: Plant response rating, Bermudagrass [1, 17] | Plant response rating, Bermudagrass [1, 26] | Bermudagrass plant response rating ([1]; Preemergence, 250 g ai/ha, 0 to 100 scale, 0 no effect, 100 complete control) | Plant response rating, Velvetleaf [4, 28] | Plant response rating, Velvetleaf [4, 20] | Plant response rating, Velvetleaf [4, 22] | Plant response rating, Pigweed [6, 28] | Plant response rating, Pigweed [6, 20] | Plant response rating, Pigweed [6, 21] | Plant response rating, Pigweed [6, 22] | Plant response rating, Morningglory [8, 20] | Plant response rating, Crabgrass, Large [10, 22]
90: Plant response rating, Bermudagrass [1, 23] | Cocklebur plant response rating [2, 27] | Plant response rating, Velvetleaf [4, 21] | Plant response rating, Barnyardgrass [5, 20] | Plant response rating, Foxtail, Giant [7, 20] | Plant response rating, Morningglory [8, 28] | Plant response rating, Morningglory [8, 22] | Plant response rating, Crabgrass, Large [10, 28] | Plant response rating, Crabgrass, Large [10, 20] | Plant response rating, Crabgrass, Large [10, 21]
60: Plant response rating, Morningglory [8, 21]
95: Plant response rating, Cocklebur [2, 14] | Plant response rating, Cocklebur [2, 25]
0: Plant response rating, Wheat [3, 23] | Wheat plant response rating (0 to 100 scale) [3, 24] | Plant response rating, Wheat [3, 16] | Plant response rating, Wheat [3, 17] | Plant response rating, Wheat [3, 26] | Wheat plant response rating [3, 27] | Plant response rating, Corn (corn (Zea mays); [28]) | Plant response rating, Corn (corn (Zea mays); [21]) | Plant response rating, Corn (corn (Zea mays); [22]) | Plant response rating, Wheat [9, 28] | Plant response rating, Wheat [9, 21] | Plant response rating, Wheat [9, 22]
40: Plant response rating, Cocklebur [2, 23] | Plant response rating, Barnyardgrass [5, 21]
20: Plant response rating, Cocklebur [2, 17]
75: Plant response rating, Cocklebur [2, 26]
80: Cocklebur plant response rating (0 to 100 scale) [2, 24] | Plant response rating, Barnyardgrass [5, 28] | Plant response rating, Barnyardgrass [5, 22] | Plant response rating, Foxtail, Giant [7, 28]
70: Plant response rating, Foxtail, Giant [7, 22]
10: Plant response rating, Cocklebur [2, 16] | Plant response rating, Wheat [3, 14]
98: Bermudagrass plant response rating (0 to 100 scale) [1, 24] | Plant response rating, Bermudagrass [1, 14] | Plant response rating, Bermudagrass [1, 25] | Plant response rating, Bermudagrass [1, 16]
25: Plant response rating, Wheat [3, 25]
50: Plant response rating, Corn (corn (Zea mays); [20]) | Plant response rating, Foxtail, Giant [7, 21] | Plant response rating, Wheat [9, 20]

O=C1CCCC(O)=C1C(=O)c1cnc(-c2cccs2)n(CC2CCCO2)c1=O (stereo not shown) [Compound 109]
80: Plant response rating, Barnyardgrass [5, 28]
98: Cocklebur plant response rating (0 to 100 scale) [2, 24]
30: Plant response rating, Corn (corn (Zea mays); [20]) | Plant response rating, Foxtail, Giant [7, 22]
10: Plant response rating, Barnyardgrass [5, 21]
90: Plant response rating, Bermudagrass [1, 29] | Plant response rating, Barnyardgrass [5, 20] | Plant response rating, Pigweed [6, 21] | Plant response rating, Foxtail, Giant [7, 20] | Plant response rating, Morningglory [8, 28] | Plant response rating, Crabgrass, Large [10, 28] | Plant response rating, Crabgrass, Large [10, 22]
95: Plant response rating, Bermudagrass [1, 25]
85: Bermudagrass plant response rating (0 to 100 scale) [1, 24]
40: Plant response rating, Morningglory [8, 21] | Plant response rating, Crabgrass, Large [10, 21]
70: Plant response rating, Bermudagrass [1, 23] | Plant response rating, Velvetleaf [4, 21] | Plant response rating, Barnyardgrass [5, 22] | Plant response rating, Foxtail, Giant [7, 28] | Plant response rating, Morningglory [8, 22]
0: Plant response rating, Corn (corn (Zea mays); [28]) | Plant response rating, Corn (corn (Zea mays); [21]) | Plant response rating, Corn (corn (Zea mays); [22]) | Plant response rating, Foxtail, Giant [7, 21] | Plant response rating, Wheat [9, 28] | Plant response rating, Wheat [9, 20] | Plant response rating, Wheat [9, 21] | Plant response rating, Wheat [9, 22]
5: Wheat plant response rating (0 to 100 scale) [3, 24] | Plant response rating, Wheat [3, 29]
75: Plant response rating, Cocklebur [2, 23]
100: Plant response rating, Cocklebur [2, 29] | Plant response rating, Cocklebur [2, 25] | Plant response rating, Velvetleaf [4, 28] | Plant response rating, Velvetleaf [4, 20] | Plant response rating, Velvetleaf [4, 22] | Plant response rating, Pigweed [6, 28] | Plant response rating, Pigweed [6, 20] | Plant response rating, Pigweed [6, 22] | Plant response rating, Morningglory [8, 20] | Plant response rating, Crabgrass, Large [10, 20]
